In PubChem BioAssay (NCI):
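Each compound was tested at five concentrations against cells in 96-well plates for 48 hours. TGI: total growth inhibition.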

What was measured:
Assay in all cases: NCI tumour cell line growth inhibition, 48 h
786-0 renal = tested on: 786-0 renal
A549 NSCLC = tested on: A549 NSCLC
ACHN renal = tested on: ACHN renal
CAKI-1 renal = tested on: CAKI-1 renal
CCRF-CEM leukemia = tested on: CCRF-CEM leukemia
DLD-1 colon = tested on: DLD-1 colon
DMS 114 small cell lung = tested on: DMS 114 small cell lung
EKVX NSCLC = tested on: EKVX NSCLC
HCC-2998 colon = tested on: HCC-2998 colon
HCT-116 colon = tested on: HCT-116 colon
HCT-15 colon = tested on: HCT-15 colon
HL-60(TB) leukemia = tested on: HL-60(TB) leukemia
HOP-18 NSCLC = tested on: HOP-18 NSCLC
HOP-62 NSCLC = tested on: HOP-62 NSCLC
HOP-92 NSCLC = tested on: HOP-92 NSCLC
HT29 colon = tested on: HT29 colon
IGROV1 ovarian = tested on: IGROV1 ovarian
K-562 leukemia = tested on: K-562 leukemia
KM12 colon = tested on: KM12 colon
LOX IMVI melanoma = tested on: LOX IMVI melanoma
LXFL 529 NSCLC = tested on: LXFL 529 NSCLC
M14 melanoma = tested on: M14 melanoma
M19-MEL melanoma = tested on: M19-MEL melanoma
MALME-3M melanoma = tested on: MALME-3M melanoma
MOLT-4 leukemia = tested on: MOLT-4 leukemia
NCI-H226 lung = tested on: NCI-H226 lung
NCI-H23 lung = tested on: NCI-H23 lung
NCI-H460 lung = tested on: NCI-H460 lung
NCI-H522 lung = tested on: NCI-H522 lung
OVCAR-3 ovarian = tested on: OVCAR-3 ovarian
OVCAR-4 ovarian = tested on: OVCAR-4 ovarian
OVCAR-5 ovarian = tested on: OVCAR-5 ovarian
OVCAR-8 ovarian = tested on: OVCAR-8 ovarian
RPMI-8226 leukemia = tested on: RPMI-8226 leukemia
RXF 393 renal = tested on: RXF 393 renal
RXF-631 renal = tested on: RXF-631 renal
SF-268 CNS = tested on: SF-268 CNS
SF-295 CNS = tested on: SF-295 CNS
SF-539 CNS = tested on: SF-539 CNS
SK-MEL-2 melanoma = tested on: SK-MEL-2 melanoma
SK-MEL-28 melanoma = tested on: SK-MEL-28 melanoma
SK-MEL-5 melanoma = tested on: SK-MEL-5 melanoma
SK-OV-3 ovarian = tested on: SK-OV-3 ovarian
SN12C renal = tested on: SN12C renal
SNB-19 CNS = tested on: SNB-19 CNS
SR leukemia = tested on: SR leukemia
SW-620 colon = tested on: SW-620 colon
TK-10 renal = tested on: TK-10 renal
U251 CNS = tested on: U251 CNS
UACC-257 melanoma = tested on: UACC-257 melanoma
UACC-62 melanoma = tested on: UACC-62 melanoma
UO-31 renal = tested on: UO-31 renal
XF 498 CNS = tested on: XF 498 CNS

Measured: TGI

CCOC(=O)C(=O)Nc1ccc([N+](=O)[O-])cc1C#N
> 100 µM: 786-0 renal | A549 NSCLC | ACHN renal | CAKI-1 renal | CCRF-CEM leukemia | DLD-1 colon | DMS 114 small cell lung | EKVX NSCLC | HCC-2998 colon | HCT-116 colon | HCT-15 colon | HL-60(TB) leukemia | HOP-18 NSCLC | HOP-62 NSCLC | HOP-92 NSCLC | HT29 colon | IGROV1 ovarian | K-562 leukemia | KM12 colon | LOX IMVI melanoma | LXFL 529 NSCLC | M14 melanoma | M19-MEL melanoma | MALME-3M melanoma | MOLT-4 leukemia | NCI-H226 lung | NCI-H23 lung | NCI-H460 lung | NCI-H522 lung | OVCAR-3 ovarian | OVCAR-4 ovarian | OVCAR-5 ovarian | OVCAR-8 ovarian | RPMI-8226 leukemia | RXF 393 renal | RXF-631 renal | SF-268 CNS | SF-295 CNS | SF-539 CNS | SK-MEL-2 melanoma | SK-MEL-28 melanoma | SK-MEL-5 melanoma | SK-OV-3 ovarian | SN12C renal | SNB-19 CNS | SR leukemia | SW-620 colon | TK-10 renal | U251 CNS | UACC-257 melanoma | UACC-62 melanoma | UO-31 renal | XF 498 CNS
